Assay [1] has as its target T1, VIP peptides (Homo sapiens, UniProt P01282).
T1 sequence (P01282 whole entry): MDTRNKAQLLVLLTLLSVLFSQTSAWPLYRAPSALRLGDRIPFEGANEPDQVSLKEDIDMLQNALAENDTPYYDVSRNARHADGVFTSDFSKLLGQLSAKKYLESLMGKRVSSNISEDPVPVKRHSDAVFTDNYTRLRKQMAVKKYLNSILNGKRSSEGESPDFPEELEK

Assay [2] concerns the target T2, VIP peptides (Rattus norvegicus, UniProt P01283).
T2 sequence (P01283 whole entry): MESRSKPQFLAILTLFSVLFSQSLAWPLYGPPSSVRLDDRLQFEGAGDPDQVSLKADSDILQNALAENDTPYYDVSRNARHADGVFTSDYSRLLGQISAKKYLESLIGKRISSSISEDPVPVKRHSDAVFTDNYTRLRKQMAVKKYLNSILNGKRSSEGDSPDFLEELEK

pKi: −log10 of the molar value. “And” between values parts separate entries of the source, which are not always exact repeats. Equal values may be shown once. Non-standard residues stand in square brackets, D forms with d. Residues, ends and D or L forms follow the SMILES beside them. ξ: configuration not given here. Ile(3ξ) = CCC(C)[C@H](N)C(=O)O

What is called pKi is the negative decadic logarithm of the Ki, by convention in mol/L. Low values mean a high Ki, high ones a low Ki.

Take `CC[C@H](C)[C@H](NC(=O)[C@H](CO)NC(=O)[C@H](CC(N)=O)NC(=O)[C@H](CC(C)C)NC(=O)[C@H](Cc1ccc(O)cc1)NC(=O)[C@H](CCCCN)NC(=O)[C@H](CCCCN)NC(=O)[C@@H](NC(=O)[C@H](C)NC(=O)[C@H](CCSC)NC(=O)[C@H](CCC(N)=O)NC(=O)[C@H](CCCCN)NC(=O)[C@H](CCCN=C(N)N)NC(=O)[C@H](CC(C)C)NC(=O)[C@H](CCCN=C(N)N)NC(=O)[C@@H](NC(=O)[C@H](Cc1ccc(O)cc1)NC(=O)[C@H](CC(N)=O)NC(=O)[C@H](CC(=O)O)NC(=O)[C@@H](NC(=O)[C@H](Cc1ccccc1)NC(=O)[C@@H](NC(=O)[C@H](C)NC(=O)[C@H](CC(=O)O)NC(=O)[C@H](CO)NC(=O)[C@@H](N)Cc1cnc[nH]1)C(C)C)[C@@H](C)O)[C@@H](C)O)C(C)C)C(=O)N[C@@H](CC(C)C)C(=O)N[C@@H](CC(N)=O)C(=O)O` [CAS_37221-79-7]: at VIP peptides [1], the pKi was 6.82. `CC[C@H](C)[C@H](NC(=O)CNC(=O)[C@H](CCC(=O)O)NC(=O)[C@H](CO)NC(=O)[C@@H](N)Cc1cnc[nH]1)C(=O)N[C@@H](Cc1ccccc1)C(=O)N[C@H](C(=O)N[C@@H](CC(=O)O)C(=O)N[C@@H](CO)C(=O)N[C@@H](Cc1ccc(O)cc1)C(=O)N[C@@H](CO)C(=O)N[C@@H](CCCNC(=N)N)C(=O)N[C@@H](Cc1ccc(O)cc1)C(=O)N[C@@H](CCCNC(=N)N)C(=O)N[C@@H](CCCCN)C(=O)N[C@@H](CCC(N)=O)C(=O)N[C@@H](CCSC)C(=O)N[C@@H](C)C(=O)N[C@H](C(=O)N[C@@H](CCCCN)C(=O)N[C@@H](CCCCN)C(=O)N[C@@H](Cc1ccc(O)cc1)C(=O)N[C@@H](CC(C)C)C(=O)N[C@@H](C)C(=O)N[C@@H](C)C(=O)N[C@H](C(=O)N[C@@H](CC(C)C)C(N)=O)C(C)C)C(C)C)[C@@H](C)O` [PACAP(1-27)]: the pKi on VIP peptides [1] is 9.52; on VIP peptides [2], 8.82 and 9.30 and 9.00. Regarding `[C][C][C]([C])[C@H]([N]C(=O)[C][N]C(=O)[C@H]([C][C]C([O])=O)[N]C(=O)[C@@H]([N])[C][O])C(=O)[N][C@@H]([C]c1ccccc1)C(=O)[N][C@H](C(=O)[N][C@@H]([C]C([O])=O)C(=O)[N][C@@H]([C][O])C(=O)[N][C@@H]([C]c1ccc([O])cc1)C(=O)[N][C@@H]([C][O])C(=O)[N][C@@H]([C][C][C]N=C([N])[N])C(=O)[N][C@@H]([C]c1ccc([O])cc1)C(=O)[N][C@@H]([C][C][C]N=C([N])[N])C(=O)[N][C@@H]([C][C][C][C][N])C(=O)[N][C@@H]([C][C]C([N])=O)C(=O)[N][C@@H]([C][C]S[C])C(=O)[N][C@@H]([C])C(=O)[N][C@@H]([C]([C])[C])C(=O)[N][C@@H]([C][C][C][C][N])C(=O)[N][C@@H]([C][C][C][C][N])C(=O)[N][C@@H]([C]c1ccc([O])cc1)C(=O)[N][C@@H]([C][C]([C])[C])C(=O)[N][C@@H]([C])C(=O)[N][C@@H]([C])C(=O)[N][C@@H]([C]([C])[C])C(=O)[N][C@@H]([C][C]([C])[C])C([N])=O)[C@@H]([C])[O]` [PACAP(2-27)], the pKi at VIP peptides [1] is 7.70; at VIP peptides [2], 6.40 and 7.40. `CCC(C)[C@H](NC(=O)CNC(=O)[C@H](CC(=O)O)NC(=O)[C@@H](N)CO)C(=O)N[C@@H](Cc1ccccc1)C(=O)N[C@H](C(=O)N[C@@H](CC(=O)O)C(=O)N[C@@H](CO)C(=O)N[C@@H](Cc1ccc(O)cc1)C(=O)N[C@@H](CO)C(=O)N[C@@H](CCCN=C(N)N)C(=O)N[C@@H](Cc1ccc(O)cc1)C(=O)N[C@@H](CCCN=C(N)N)C(=O)N[C@@H](CCCCN)C(=O)N[C@@H](CCC(N)=O)C(=O)N[C@@H](CCSC)C(=O)N[C@@H](C)C(=O)N[C@H](C(=O)N[C@@H](CCCCN)C(=O)N[C@@H](CCCCN)C(=O)N[C@@H](Cc1ccc(O)cc1)C(=O)N[C@@H](CC(C)C)C(=O)N[C@@H](C)C(=O)N[C@@H](C)C(=O)N[C@H](C(=O)N[C@@H](CC(C)C)C(=O)NCC(=O)N[C@@H](CCCCN)C(=O)N[C@@H](CCCN=C(N)N)C(=O)N[C@@H](Cc1ccc(O)cc1)C(=O)N[C@@H](CCCCN)C(=O)N[C@@H](CCC(N)=O)C(=O)N[C@@H](CCCN=C(N)N)C(=O)N[C@H](C(=O)N[C@@H](CCCCN)C(=O)N[C@@H](CC(N)=O)C(=O)N[C@@H](CCCCN)C(N)=O)C(C)C)C(C)C)C(C)C)[C@@H](C)O` (stereo partly drawn) [PACAP(2-38)] (H-SDG[Ile(3ξ)]FTDSYSRYRKQMAVKKYLAAVLGKRYKQRVKNK-NH2): the pKi at VIP peptides [1] is 8.70; at VIP peptides [2], 8.00 and 8.40 and 7.52. For `CC[C@H](C)[C@H](NC(=O)CNC(=O)[C@H](CC(=O)O)NC(=O)[C@H](CO)NC(=O)[C@@H](N)Cc1cnc[nH]1)C(=O)N[C@@H](Cc1ccccc1)C(=O)N[C@H](C(=O)N[C@@H](CC(=O)O)C(=O)N[C@@H](CO)C(=O)N[C@@H](Cc1ccc(O)cc1)C(=O)N[C@@H](CO)C(=O)N[C@@H](CCCNC(=N)N)C(=O)N[C@@H](Cc1ccc(O)cc1)C(=O)N[C@@H](CCCNC(=N)N)C(=O)N[C@@H](CCCCN)C(=O)N[C@@H](CCC(N)=O)C(=O)N[C@@H](CCSC)C(=O)N[C@@H](C)C(=O)N[C@H](C(=O)N[C@@H](CCCCN)C(=O)N[C@@H](CCCCN)C(=O)N[C@@H](Cc1ccc(O)cc1)C(=O)N[C@@H](CC(C)C)C(=O)N[C@@H](C)C(=O)N[C@@H](C)C(=O)N[C@H](C(=O)N[C@@H](CC(C)C)C(=O)NCC(=O)N[C@@H](CCCCN)C(=O)N[C@@H](CCCNC(=N)N)C(=O)N[C@@H](Cc1ccc(O)cc1)C(=O)N[C@@H](CCCCN)C(=O)N[C@@H](CCC(N)=O)C(=O)N[C@@H](CCCNC(=N)N)C(=O)N[C@H](C(=O)N[C@@H](CCCCN)C(=O)N[C@@H](CC(N)=O)C(=O)N[C@@H](CCCCN)C(N)=O)C(C)C)C(C)C)C(C)C)[C@@H](C)O` [PACAP], at VIP peptides [2], the pKi was 9.05 and 9.52. Consider “H-HSDAVFTDNYTRLRKQMAVKKYLAAVL-NH2 [VIP-PACAP]”, for which the negative-log Ki (pKi) on VIP peptides [1] is 7.00. Still for that read-out and setting: in the case of “H-HSDAVFTDNYTRYRKQMAVKKYLNSILN-OH [[Tyr13]VIP]” it was 7.40.

As to “H-HSDAVFTDSYTRLRKQMAVKKYLNSILN-NH2 [[Ser9]VIP]”, the pKi at VIP peptides [1] is 7.30. Same read-out and setting: in the case of “H-HSDAVFTDSYTRYRKQMAVKKYLNSILN-NH2 [[Ser9,Tyr13]VIP]” it was 7.82. Molecule “H-HSDGIFTDSYTRLRKQMAVKKYLNSILN-OH [PACAP-VIP]” had a pKi at VIP peptides [1] of 8.10.

The values are drawn from BindingDB's records for doi:10.1111/j.1432-1033.1991.tb15734.x (Universit&Eacute, 1991).
